Assay results taken from PubChem BioAssay AID276 (DTP/NCI, 2004).
Several values for one entry are separate records, joined by “and”; a condition that tells them apart may be missing. Equal entries are not always repeated. Toxic doses and inconclusive results are not listed.

System: B6C3F1 mice, Lewis lung carcinoma iv, survival T/C
Experiment: NCI In Vivo Anticancer Drug Screen. Data for tumor model Lewis Lung Carcinoma (intravenous) in B6C3F1 mice
Settings: endpoint: median survival time, schedule: Q01DX009 (ip), higher = longer survival
Summary of the method: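 Mice carrying transplanted tumors received test compound; survival in the treated group was divided by that of the vehicle-treated control group to give the T/C value.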

[1] = dose: 12.5 mg/kg/injection, vehicle: saline
[2] = dose: 25.0 mg/kg/injection, vehicle: saline
[3] = dose: 50.0 mg/kg/injection, vehicle: saline
[4] = dose: 100.0 mg/kg/injection, vehicle: saline
[5] = dose: 400.0 mg/kg/injection, vehicle: saline
[6] = dose: 12.5 mg/kg/injection, vehicle: saline with Tween-80
[7] = dose: 25.0 mg/kg/injection, vehicle: saline with Tween-80
[8] = dose: 2.5 mg/kg/injection, vehicle: saline
[9] = dose: 10.0 mg/kg/injection, vehicle: saline
[10] = dose: 50.0 mg/kg/injection, vehicle: saline with Tween-80
[11] = dose: 100.0 mg/kg/injection, vehicle: saline with Tween-80
[12] = dose: 200.0 mg/kg/injection, vehicle: saline with Tween-80
[13] = dose: 400.0 mg/kg/injection, vehicle: saline with Tween-80
[14] = dose: 3.12 mg/kg/injection, vehicle: saline with Tween-80
[15] = dose: 200.0 mg/kg/injection, vehicle: saline
[16] = dose: 12.5 mg/kg/injection, vehicle: Klucel (hydroxypropylcellulose) (HPC)
[17] = dose: 25.0 mg/kg/injection, vehicle: Klucel (hydroxypropylcellulose) (HPC)
[18] = dose: 50.0 mg/kg/injection, vehicle: Klucel (hydroxypropylcellulose) (HPC)
[19] = dose: 100.0 mg/kg/injection, vehicle: Klucel (hydroxypropylcellulose) (HPC)
[20] = dose: 200.0 mg/kg/injection, vehicle: Klucel (hydroxypropylcellulose) (HPC)
[21] = dose: 400.0 mg/kg/injection, vehicle: Klucel (hydroxypropylcellulose) (HPC)

Cc1nnc2ncccn12
T/C [1]: 104 % of control
T/C [2]: 110 % of control
T/C [3]: 101 % of control
T/C [4]: 96 % of control
T/C [5]: 103 % of control

CC1=CC(=Nc2ccc(N(CCCl)CCCl)cc2)C=C(C)C1=O
T/C [6]: 109 % of control
T/C [7]: 116 % of control

CCC(C(=O)O)C(=O)O.[NH2-].[NH2-].[Pt+2]
T/C (dose: 3.12 mg/kg/injection, vehicle: saline): 102 % of control
T/C (dose: 6.25 mg/kg/injection, vehicle: saline): 103 % of control
T/C [1]: 120 % of control
T/C [2]: 112 % of control and 120 % of control
T/C [3]: 109 % of control and 118 % of control

O=C1c2ccccc2C(=O)c2c(NCCNCCO)ccc(O)c21
T/C [8]: 104 % of control
T/C (dose: 5.0 mg/kg/injection, vehicle: saline): 116 % of control
T/C [9]: 96 % of control
T/C (dose: 20.0 mg/kg/injection, vehicle: saline): 104 % of control
T/C (dose: 40.0 mg/kg/injection, vehicle: saline): 117 % of control
T/C (dose: 80.0 mg/kg/injection, vehicle: saline): 117 % of control

C[PH+](C)C.C[PH+](C)C.[Au]
T/C (dose: 0.62 mg/kg/injection, vehicle: saline): 97 % of control
T/C (dose: 1.25 mg/kg/injection, vehicle: saline): 102 % of control
T/C [8]: 105 % of control
T/C [9]: 109 % of control

CCCCCC#CC1OC12CCCCC2 (stereo not given)
T/C [10]: 102 % of control
T/C [11]: 100 % of control
T/C [12]: 88 % of control
T/C [13]: 91 % of control

C[CH2][Sn]1([CH2]C)[O]OC(c2ccccc2)[O]1 (stereo not given)
T/C (dose: 0.78 mg/kg/injection, vehicle: saline with Tween-80): 97 % of control
T/C (dose: 1.56 mg/kg/injection, vehicle: saline with Tween-80): 100 % of control
T/C [14]: 100 % of control
T/C [6]: 95 % of control

CC(=O)Oc1c[nH]c(=O)[nH]c1=O
T/C (dose: 12.5 mg/kg/injection, vehicle: distilled water + Tween-80): 102 % of control
T/C (dose: 25.0 mg/kg/injection, vehicle: distilled water + Tween-80): 95 % of control
T/C (dose: 50.0 mg/kg/injection, vehicle: distilled water + Tween-80): 92 % of control
T/C (dose: 100.0 mg/kg/injection, vehicle: distilled water + Tween-80): 100 % of control
T/C (dose: 200.0 mg/kg/injection, vehicle: distilled water + Tween-80): 95 % of control
T/C (dose: 400.0 mg/kg/injection, vehicle: distilled water + Tween-80): 94 % of control

CCCCCCCCCCCCCCCCCCOCC(COP(=O)([O-])OCC[N+](C)(C)C)OC (stereo not given)
T/C (dose: 6.25 mg/kg/injection, vehicle: suspension in saline): 96 % of control
T/C (dose: 12.5 mg/kg/injection, vehicle: suspension in saline): 99 % of control
T/C (dose: 25.0 mg/kg/injection, vehicle: suspension in saline): 100 % of control

O=C(NO)c1ccc(O)c(O)c1
T/C [2]: 100 % of control
T/C [3]: 98 % of control
T/C (dose: 50.0 mg/kg/injection, vehicle: suspension in saline): 98 % of control
T/C [4]: 101 % of control
T/C (dose: 100.0 mg/kg/injection, vehicle: suspension in saline): 110 % of control
T/C [15]: 100 % of control
T/C (dose: 200.0 mg/kg/injection, vehicle: suspension in saline): 118 % of control
T/C [5]: 158 % of control
T/C (dose: 400.0 mg/kg/injection, vehicle: suspension in saline): 124 % of control

OCC1OC(n2cnc3c(NO)ncnc32)C(O)C1O (stereo not given)
T/C [16]: 102 % of control
T/C [17]: 97 % of control
T/C [18]: 109 % of control
T/C [19]: 105 % of control
T/C [20]: 110 % of control
T/C [21]: 109 % of control

NC(Cn1ccc(=O)c(O)c1)C(=O)O (stereo not given)
T/C [1]: 94 % of control
T/C [2]: 98 % of control
T/C [3]: 102 % of control
T/C [4]: 94 % of control
T/C [15]: 94 % of control

CCCCCCCCCCCCSC1=C(Cl)C(=O)C(OC)=C(OC)C1=O
T/C [14]: 99 % of control
T/C (dose: 6.25 mg/kg/injection, vehicle: saline with Tween-80): 94 % of control
T/C [6]: 99 % of control
T/C [7]: 94 % of control
T/C [10]: 96 % of control

C[C@]12C=CC(=O)C=C1CC[C@@H]1[C@@H]2[C@@H](O)C[C@@]2(C)[C@H]1CC[C@]2(O)C(=O)CO
T/C [17]: 107 % of control
T/C [18]: 118 % of control
T/C [19]: 107 % of control
T/C [20]: 118 % of control
T/C [21]: 107 % of control

CN(C)P(=O)(Oc1ccccc1)N(C)C
T/C [6]: 113 % of control
T/C [7]: 98 % of control
T/C [10]: 101 % of control
T/C [11]: 115 % of control
T/C [12]: 101 % of control
T/C [13]: 100 % of control

COc1ccc2[nH]c3ccc4cc[n+](CCN5CCC(C6CCN(CC[n+]7ccc8ccc9[nH]c%10ccc(OC)cc%10c9c8c7)CC6)CC5)cc4c3c2c1
T/C (dose: 6.25 mg/kg/injection, vehicle: Klucel (hydroxypropylcellulose) (HPC)): 106 % of control
T/C [16]: 91 % of control and 103 % of control
T/C [17]: 99 % of control

Cn1cc(C2NC(=O)c3ccccc3N2)c2ccccc21 (stereo not given)
T/C [17]: 104 % of control
T/C [18]: 105 % of control
T/C [19]: 100 % of control
T/C [20]: 104 % of control

Cc1ccc(C2NC(=S)N3C(c4ccc(C)cc4)NC(=S)N23)cc1 (stereo not given)
T/C [17]: 103 % of control
T/C [18]: 101 % of control
T/C [19]: 93 % of control
T/C [20]: 99 % of control
T/C [21]: 98 % of control
T/C (dose: 800.0 mg/kg/injection, vehicle: Klucel (hydroxypropylcellulose) (HPC)): 109 % of control

Nc1ccn(C2OC(CO)C(O)C2O)c(=O)n1 (stereo not given)
T/C (dose: 1.0 mg/kg/injection, vehicle: saline): 98 % of control
T/C (dose: 2.0 mg/kg/injection, vehicle: saline): 97 % of control
T/C (dose: 4.0 mg/kg/injection, vehicle: saline): 100 % of control
T/C (dose: 15.0 mg/kg/injection, vehicle: saline): 110 % of control
T/C [3]: 160 % of control
T/C [4]: 203 % of control

CC(=O)NC(C=O)OCC=O (stereo not given)
T/C (dose: 6.25 mg/kg/injection, vehicle: water): 111 % of control
T/C (dose: 12.5 mg/kg/injection, vehicle: water): 104 % of control
T/C (dose: 25.0 mg/kg/injection, vehicle: water): 97 % of control
T/C (dose: 50.0 mg/kg/injection, vehicle: water): 97 % of control
T/C (dose: 100.0 mg/kg/injection, vehicle: water): 91 % of control
T/C (dose: 200.0 mg/kg/injection, vehicle: water): 103 % of control
